These results are taken from patent US8350027B2, “Dual-acting pyrazole antihypertensive agents” (Theravance, Inc., priority 2009, dated 2013).

The target of test [1] is T1, NEP enzyme (Homo sapiens, UniProt P08473).
T1 construct: purchased R&D Systems, Minneapolis, Minn; 1182-ZN
The experiment in a line: NEP enzyme inhibition assay (fluorogenic peptide substrate). Particulars: values given as lower bounds; * = prodrugs, may not exhibit NEP activity in an in vitro assay; read-out: NEP pIC50 (converted). It counts as biochemical. An outline of the steps: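 Recombinant human NEP was run with Mca-BK2 (10 μM) at room temperature in Tris buffer with 1 μM Zn. Compounds (10 μM–20 pM, 12 points) were pre-equilibrated 10 min, then reacted 20 min and acid-stopped. Fluorescence ex 320/em 405 nm, one-site competition fit gives pIC50. Thiol compounds may be pre-treated with 400 μM TCEP.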

For test [2], the target named is T2, human AT1 receptor (Homo sapiens, UniProt P30556).
T2 construct: expressed in transfected cells; host or cells: CHO-K1
T2 sequence (P30556 1-359): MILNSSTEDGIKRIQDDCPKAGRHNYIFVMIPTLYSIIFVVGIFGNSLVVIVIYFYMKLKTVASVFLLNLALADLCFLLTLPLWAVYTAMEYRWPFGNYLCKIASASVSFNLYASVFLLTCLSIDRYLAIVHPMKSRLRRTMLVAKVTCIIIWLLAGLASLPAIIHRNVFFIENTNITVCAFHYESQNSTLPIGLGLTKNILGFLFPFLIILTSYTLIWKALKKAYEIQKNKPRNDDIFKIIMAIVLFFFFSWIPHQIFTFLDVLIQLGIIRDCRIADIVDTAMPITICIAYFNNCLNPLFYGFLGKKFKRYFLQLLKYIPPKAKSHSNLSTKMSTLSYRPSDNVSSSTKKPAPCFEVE
The experiment in a line: AT1 radioligand binding assay (displacement of [Eu]AngII). The conditions noted are these: membranes of CHO-K1 cells expressing cloned human AT1 receptor; values given as lower bounds; read-out: AT1 pKi (converted). An outline of the steps:
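Membranes from CHO-K1 cells stably expressing cloned human AT1, 0.2 μg protein, in 50 mM Tris/HCl pH 7.5, 5 mM MgCl2, 0.025% BSA. Compounds displaced [Eu]AngII over 120 min in the dark at room temperature or 37° C; filter-bound TRF read. Nonspecific binding with 10 μM angiotensin II; IC50 converted to Ki via Cheng-Prusoff, reported as pKi.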

T1 sequence (P08473 52-750 limits assumed): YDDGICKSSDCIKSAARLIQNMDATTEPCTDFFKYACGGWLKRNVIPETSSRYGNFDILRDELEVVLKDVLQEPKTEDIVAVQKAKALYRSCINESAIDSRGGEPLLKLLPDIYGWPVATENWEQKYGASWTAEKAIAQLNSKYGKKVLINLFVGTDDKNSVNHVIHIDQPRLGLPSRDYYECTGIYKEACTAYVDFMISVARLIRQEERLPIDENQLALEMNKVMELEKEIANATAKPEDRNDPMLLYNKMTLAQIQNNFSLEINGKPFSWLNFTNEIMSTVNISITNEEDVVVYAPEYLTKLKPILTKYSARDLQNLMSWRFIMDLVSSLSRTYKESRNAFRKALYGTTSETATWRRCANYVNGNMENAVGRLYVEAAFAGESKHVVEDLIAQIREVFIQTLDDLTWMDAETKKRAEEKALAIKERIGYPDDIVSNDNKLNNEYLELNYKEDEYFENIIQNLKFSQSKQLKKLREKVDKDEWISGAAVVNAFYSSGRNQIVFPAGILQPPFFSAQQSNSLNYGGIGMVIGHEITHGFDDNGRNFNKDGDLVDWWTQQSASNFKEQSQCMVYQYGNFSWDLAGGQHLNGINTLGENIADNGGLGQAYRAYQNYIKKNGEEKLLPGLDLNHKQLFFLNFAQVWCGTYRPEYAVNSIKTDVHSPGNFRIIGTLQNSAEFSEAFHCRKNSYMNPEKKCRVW

Consider `CCCc1cc(C(=O)N[C@@H](CC(=O)O)Cc2ccccc2C(F)(F)F)nn1Cc1ccc(-c2ccccc2S(=O)(=O)NC(C)=O)cc1` [Example 6-25, (R)-3-{[1-(2′-Acetylsulfamoylbiphenyl-4-ylmethyl)-5-propyl-1H-pyrazole-3-carbonyl]amino}-4-(2-trifluoromethylphenyl)butyric acid], for which, in test [1], the IC50 is at most 1000 nM. Also, the Ki in test [2] was at most 10 nM.

As for `CCCc1cc(C(=O)N[C@H](Cc2ccccc2)[C@@H](O)C(=O)O)nn1Cc1ccc(-c2ccccc2-c2nc(=O)o[nH]2)cc1` [Example 16-2, (2R,3R)-2-Hydroxy-3-({1-[2′-(5-oxo-2,5-dihydro-[1,2,4]oxadiazol-3-yl)biphenyl-4-ylmethyl]-5-propyl-1H-pyrazole-3-carbonyl}amino)-4-phenylbutyric acid], the IC50 in test [1] is at most 1000 nM. Further, the Ki in test [2] is at most 10 nM.

Regarding `CCCc1cc(C(=O)N[C@@H](CC(=O)OC)Cc2ccccc2C)nn1Cc1ccc(-c2ccccc2-c2nnn[nH]2)cc1` [Example 3-29, (R)-3-({5-Propyl-1-[2′-(1H-tetrazol-5-yl)-biphenyl-4-ylmethyl]-1H-pyrazole-3-carbonyl}amino)-4-o-tolyl-butyric acid methyl ester], in test [1], the IC50 was at most 10000 nM. The Ki in test [2] was at most 10 nM.

On to `CCCc1cc(C(=O)N[C@@H](CC(=O)NO)Cc2ccccc2)nn1Cc1ccc(-c2ccccc2S(=O)(=O)NC(C)=O)cc1F` [Example 6-16, 1-(2′-Acetylsulfamoyl-3-fluorobiphenyl-4-ylmethyl)-5-propyl-1H-pyrazole-3-carboxylic acid ((R)-1-hydroxycarbamoylmethyl-2-phenylethyl)amide], for which the IC50 in test [1] was at most 100 nM. In test [2], the Ki is at most 10 nM.

Take `CCCc1cc(C(=O)N[C@@H](CC(=O)NO)Cc2ccccc2)nn1Cc1ccc(-c2ccccc2-c2nnn[nH]2)cc1` [Example 3-16, 5-Propyl-1-[2′-(1H-tetrazol-5-yl)-biphenyl-4-ylmethyl]-1H-pyrazole-3-carboxylic acid ((R)-1-hydroxycarbamoylmethyl-2-phenylethyl)amide]: the IC50 in test [1] is at most 100 nM. Besides, the Ki in test [2] is at most 10 nM.

With `CCCc1cc(C(=O)N[C@H](Cc2ccccc2Cl)[C@@H](O)C(=O)O)nn1Cc1ccc(-c2ccccc2-c2nnn[nH]2)cc1` [Example 3-22, (2R,3R)-3-(1-((2′-(1H-tetrazol-5-yl)biphenyl-4-yl)methyl)-5-propyl-1H-pyrazole-3-carboxamido)-4-(2-chlorophenyl)-2-hydroxybutanoic acid], the IC50 in test [1] is at most 100 nM. In addition, in test [2], the Ki is at most 100 nM.

For the compound `CCCc1cc(C(=O)N[C@H](Cc2ccccc2)[C@@H](O)C(=O)O)nn1Cc1ccc(-c2ccccc2C(=O)O)cc1` [Example 9-5, 4′-[3-((1R,2R)-1-Benzyl-2-carboxy-2-hydroxyethylcarbamoyl)-5-propylpyrazol-1-ylmethyl]biphenyl-2-carboxylic acid], the IC50 in test [1] was at most 100 nM. The Ki in test [2] was at most 100 nM.

Take `CCOc1cc(C(=O)N[C@@H](CS)Cc2ccccc2)nn1Cc1ccc(-c2ccccc2-c2nnn[nH]2)cc1F` [Example 3-1, 5-Ethoxy-1-[3-fluoro-2′-(1H-tetrazol-5-yl)biphenyl-4-ylmethyl]-1H-pyrazole-3-carboxylic acid ((R)-1-benzyl-2-mercaptoethyl)amide]: in test [1], the IC50 is at most 100 nM. Besides, the Ki in test [2] is at most 10 nM.

On to `CCCc1cc(C(=O)N[C@H](Cc2ccccc2Cl)[C@@H](O)C(=O)O)nn1Cc1ccc(-c2ccccc2-c2nnn[nH]2)nc1` [Example 14-5, (2R,3R)-4-(2-Chlorophenyl)-2-hydroxy-3-[(5-propyl-1-{6-[2-(1H-tetrazol-5-yl)phenyl]pyridin-3-ylmethyl}-1H-pyrazole-3-carbonyl)amino]butyric acid], for which, in test [1], the IC50 is at most 100 nM. Also, the Ki in test [2] is at most 10 nM.

Take `CCCc1cc(C(=O)N[C@@H](CC(=O)O)Cc2ccc(F)cc2)nn1Cc1ccc(-c2ccccc2-c2nnn[nH]2)nc1` [Example 14-13, (R)-4-(4-Fluorophenyl)-3-[(5-propyl-1-{6-[2-(1H-tetrazol-5-yl)phenyl]pyridin-3-ylmethyl}-1H-pyrazole-3-carbonyl)amino]butyric acid]: the IC50 in test [1] is at most 100 nM. Further, the Ki in test [2] was at most 10 nM.

Regarding `CCCc1cc(C(=O)N[C@H](Cc2ccccc2)[C@@H](O)C(=O)O)nn1Cc1ccc(-c2ccccc2S(=O)(=O)NC(=O)C(C)(C)N)cc1` [Example 7-19, (2R,3R)-3-({1-[2′-(2-Amino-2-methylpropionylsulfamoyl)biphenyl-4-ylmethyl]-5-propyl-1H-pyrazole-3-carbonyl}amino)-2-hydroxy-4-phenylbutyric acid], in test [1], the IC50 is at most 1000 nM. In test [2], the Ki was at most 100 nM.

On to `CCCc1cc(C(=O)N[C@@H](CS)Cc2ccccc2)nn1Cc1ccc(-c2ccccc2C(=O)O)cc1` [Example 9-6, 4′-[3-((R)-1-Mercaptomethyl-2-phenylethylcarbamoyl)-5-propylpyrazol-1-ylmethyl]biphenyl-2-carboxylic acid], for which the IC50 in test [1] is at most 100 nM. For the same compound, in test [2], the Ki was at most 100 nM.

`CCCc1cc(C(=O)N[C@H](Cc2ccccc2)[C@@H](O)C(=O)O)nn1Cc1ccc(-c2ccccc2S(=O)(=O)NC(=O)[C@H](C)O)cc1` [Example 7-13, (2R,3R)-2-Hydroxy-3-({1-[2′-((S)-2-hydroxypropionylsulfamoyl)biphenyl-4-ylmethyl]-5-propyl-1H-pyrazole-3-carbonyl}amino)-4-phenylbutyric acid]: in test [1], the IC50 was at most 100 nM. For the same compound, in test [2], the Ki was at most 10 nM.

For `CCOc1cc(C(=O)N[C@@H](CS)CC(C)C)nn1Cc1ccc(-c2ccccc2-c2nnn[nH]2)cc1F` [Example 3-38, 5-Ethoxy-1-[3-fluoro-2′-(1H-tetrazol-5-yl)biphenyl-4-ylmethyl]-1H-pyrazole-3-carboxylic acid ((R)-1-mercaptomethyl-3-methylbutyl)amide], the IC50 in test [1] was at most 100 nM. The Ki in test [2] is at most 100 nM.

For `CCOc1cc(C(=O)N[C@@H](CC(=O)O)Cc2ccccc2)nn1Cc1ccc(-c2ccccc2-c2nnn[nH]2)cc1` [Example 3-32, (R)-3-({5-Ethoxy-1-[2′-(1H-tetrazol-5-yl)biphenyl-4-ylmethyl]-1H-pyrazole-3-carbonyl}amino)-4-phenylbutyric acid], the IC50 in test [1] is at most 10000 nM. Further, the Ki in test [2] was at most 100 nM.

Regarding `CCCc1cc(C(=O)N[C@@H](CC(=O)O)Cc2ccccc2Cl)nn1Cc1ccc(-c2ccccc2S(=O)(=O)NC(C)=O)cc1` [Example 6-27, (R)-3-{[1-(2′-Acetylsulfamoylbiphenyl-4-ylmethyl)-5-propyl-1H-pyrazole-3-carbonyl]amino}-4-(2-chlorophenyl)butyric acid], in test [1], the IC50 was at most 1000 nM. Further, the Ki in test [2] was at most 10 nM.

Consider `CCCc1cc(C(=O)N[C@H](Cc2ccccc2)[C@@H](O)C(=O)O)nn1Cc1c(F)cc(-c2ccccc2-c2nnn[nH]2)cc1F` [Example 3-26, (2R,3R)-3-(1-((3,5-difluoro-2′-(1H-tetrazol-5-yl)biphenyl-4-yl)methyl)-5-propyl-1H-pyrazole-3-carboxamido)-2-hydroxy-4-phenylbutanoic acid], for which the IC50 in test [1] was at most 100 nM. The Ki in test [2] was at most 100 nM.

Take `CCCc1cc(C(=O)N[C@@H](CC(=O)O)Cc2ccccc2Cl)nn1Cc1ccc(-c2ccccc2-c2nnn[nH]2)c(F)c1` [Example 3-18, (R)-4-(2-Chlorophenyl)-3-({1-[2-fluoro-2′-(1H-tetrazol-5-yl)biphenyl-4-ylmethyl]-5-propyl-1H-pyrazole-3-carbonyl}amino)butyric acid]: the IC50 in test [1] was at most 1000 nM. Further, in test [2], the Ki was at most 10 nM.
